In US9187411B2, “Leukotriene B4 antagonist compound” (Eli Lilly and Company, priority 2012, dated 2015) one finds AUC and Ki data, which are given here for one compound.

Molecules are shown by their SMILES.

A short description of series [1]: Exposure (AUC) in the LDLr KO mouse atherosclerosis study. The note with it: male, LDLr KO (JAX #002207), in vivo, LDLr KO mice. The source says: LDLr KO mice (JAX #002207), 7 week old males, were obtained from The Jackson Laboratory (Bar Harbor, Me.). Upon arrival at the testing facility and continuing for a total of 10 weeks, mice were housed individually and fed the atherogenic diet TD.88137 (Teklad) ad libitum. During the first 6 weeks, the mice rested undisturbed in their cages. During the last 4 weeks, the mice received the test compound twice daily by oral gavage.

In the next series the target is T1, PPARδ (Homo sapiens, UniProt Q03181).
T1 construct: made in house; host or cells: Sf9 insect cells (baculovirus), crude cell lysate
T1 sequence (Q03181 1-441): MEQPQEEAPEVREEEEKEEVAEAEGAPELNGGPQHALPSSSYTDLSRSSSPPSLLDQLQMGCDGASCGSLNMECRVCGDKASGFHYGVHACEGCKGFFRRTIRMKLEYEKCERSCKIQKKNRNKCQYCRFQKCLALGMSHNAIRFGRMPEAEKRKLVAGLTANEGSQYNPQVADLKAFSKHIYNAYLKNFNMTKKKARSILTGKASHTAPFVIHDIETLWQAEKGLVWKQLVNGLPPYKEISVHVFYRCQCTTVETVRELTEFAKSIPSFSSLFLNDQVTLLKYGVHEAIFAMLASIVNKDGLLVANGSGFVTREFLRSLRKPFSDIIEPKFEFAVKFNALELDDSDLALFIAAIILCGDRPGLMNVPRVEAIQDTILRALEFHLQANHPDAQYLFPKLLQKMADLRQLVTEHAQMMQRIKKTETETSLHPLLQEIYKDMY
T1 sequence (P19793 1-462 partner): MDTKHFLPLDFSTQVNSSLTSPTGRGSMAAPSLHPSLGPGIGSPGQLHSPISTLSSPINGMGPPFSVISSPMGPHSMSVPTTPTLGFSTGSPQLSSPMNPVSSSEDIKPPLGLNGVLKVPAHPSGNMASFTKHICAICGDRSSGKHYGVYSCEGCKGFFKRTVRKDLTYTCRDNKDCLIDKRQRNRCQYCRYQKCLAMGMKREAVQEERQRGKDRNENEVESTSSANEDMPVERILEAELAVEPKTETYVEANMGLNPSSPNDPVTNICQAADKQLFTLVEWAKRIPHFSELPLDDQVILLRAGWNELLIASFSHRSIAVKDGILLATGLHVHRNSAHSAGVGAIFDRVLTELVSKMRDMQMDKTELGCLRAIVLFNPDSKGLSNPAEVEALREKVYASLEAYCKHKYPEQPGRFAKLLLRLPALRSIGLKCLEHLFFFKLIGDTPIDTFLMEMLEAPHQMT
The series is described as follows: PPAR delta binding assay (SPA). The note with it: tritiated GW2331, n=4, read-out: Ki PPAR δ binding. An excerpt: The nucleotide sequences encoding full-length PPARα receptor DNA (National Center for Biotechnology Information (NCBI) Reference Sequence NM_005036.4), PPARδ receptor DNA (NCBI Reference Sequence NM_006238.4), PPARγ receptor DNA (NCBI Reference Sequence NM_015869.4) and Retinoid X Receptor (RXR) α DNA (NCBI Reference Sequence NM_002957.4) are synthesized and inserted into pFastBacHTb (Invitrogen) vector in-framed with the N-terminal HIS tag from the vector. […] The protein concentration is determined by Bradford assay using BSA as the standard.
Binding Affinities of Compounds for the PPAR α, δ, γ Receptors are Assessed Using Scintillation Proximity Assay (SPA) Technology.
Biotinylated oligonucleotide(DR2) ^5′[…]^3′ (SEQ ID NO: 1) is used for binding of receptors to Yttrium silicate streptavidin-coated SPA beads (Perkin Elmer). The PPAR α, δ, γ and Retinoid X Receptor (RXR) α receptors (endogenously expressed as heterodimers) are cell lysates from Baculovirus expression systems in Sf9 cells. […] Non-specific binding is determined in the presence of 10000 nM unlabeled GW2331 (Kliewer, S. A. et al Proc. Natl. Acad. Sci. USA (1997), 94: 4318-4323) for the alpha and delta receptors and 2-methyl-2-[4-[3-[propyl[(5-pyridin-2-ylthiophen-2-yl)sulfonyl]amino]-propyl]phenoxy]propanoic (WO 2004/073606) for the gamma receptor. […]

For orientation: AUC means the area under the concentration-time curve, a measure of exposure. For orientation: Ki means the equilibrium dissociation constant of an inhibitor or competing ligand from its target. Regarding `CCCc1c(NC(=O)CC(C)(C)C(=O)[O-])cccc1OCCCOc1cc(O)c(-c2ccc(F)cc2)cc1CC.[Na+]` [Example 2, Sodium 4-[[3-[3-[2-ethyl-4-(4-fluorophenyl)-5-hydroxy-phenoxy]propoxy]-2-propyl-phenyl]amino]-2,2-dimethyl-4-oxo-butanoate], the results for the AUC in series [1] (3 mg/kg BID oral gavage), in series [1] (10 mg/kg BID oral gavage) and in series [1] (30 mg/kg BID oral gavage) were 1110 ng·h/mL, 5380 ng·h/mL and 12800 ng·h/mL, respectively. Further, the Ki at PPARδ is over 8.83 µM.
